Reference: patent US10584134B2, “Use of physiological cooling active ingredients, and agents containing such active ingredients” (SYMRISE AG, priority 2009, dated 2020)
Counter-ions that a name gives are not always drawn.

target: human TRPM8 receptor (Homo sapiens (Human), UniProt Q7Z2W7); assay: Assay on TRPM8 modulators (Ca2+-sensitive dye, HEK293-TRPM8 test cells, EC50 determination); type: cell-based; settings: Table A, structure type 1; assay according to reference example 3
Description: As a test cell system the human TRPM8 DNA (see plasmid pInd-M8 above) was used to prepare a stable transfixed HEK293 cell line. Here preference is for HEK293 which via the plasmid introduced offers the possibility of induction of the TRPM8 expression by means of tetracycline.
The agonisation or antagonisation of the receptor can be quantified by means of a Ca^2+-sensitive dye (e.g. FURA, Fluo-4, etc.).
To begin with, in a manner known per se, in cell culture flasks a fresh culture of transformed HEK cells is prepared. The HEK293-TRPM8 test cells are removed using trypsin from the cell culture flasks and 40 000 cells/well are sown with 100 μl medium in 96-well plates (Greiner #655948 Poly-D-lysine coated). In order to induce the TRPM8 receptor the growth medium tetracycline is mixed in (DMEM/HG, 10% FCS tetracycline-free, 4 mM L-glutamine, 15 μg/ml blasticidin, 100 μg/ml hygromycin B, 1 μg/ml tetracycline). The next day the cells are charged with Fluo-4Am dye and the test is performed.
The test substances are used in triplicate in concentrations of between 0.1 and 200 μm in the assay. Normally the compounds are kept ready in DMSO solutions and diluted for the assay to a maximum DMSO concentration of 2%.

Chain of human TRPM8 receptor (Q7Z2W7 whole entry): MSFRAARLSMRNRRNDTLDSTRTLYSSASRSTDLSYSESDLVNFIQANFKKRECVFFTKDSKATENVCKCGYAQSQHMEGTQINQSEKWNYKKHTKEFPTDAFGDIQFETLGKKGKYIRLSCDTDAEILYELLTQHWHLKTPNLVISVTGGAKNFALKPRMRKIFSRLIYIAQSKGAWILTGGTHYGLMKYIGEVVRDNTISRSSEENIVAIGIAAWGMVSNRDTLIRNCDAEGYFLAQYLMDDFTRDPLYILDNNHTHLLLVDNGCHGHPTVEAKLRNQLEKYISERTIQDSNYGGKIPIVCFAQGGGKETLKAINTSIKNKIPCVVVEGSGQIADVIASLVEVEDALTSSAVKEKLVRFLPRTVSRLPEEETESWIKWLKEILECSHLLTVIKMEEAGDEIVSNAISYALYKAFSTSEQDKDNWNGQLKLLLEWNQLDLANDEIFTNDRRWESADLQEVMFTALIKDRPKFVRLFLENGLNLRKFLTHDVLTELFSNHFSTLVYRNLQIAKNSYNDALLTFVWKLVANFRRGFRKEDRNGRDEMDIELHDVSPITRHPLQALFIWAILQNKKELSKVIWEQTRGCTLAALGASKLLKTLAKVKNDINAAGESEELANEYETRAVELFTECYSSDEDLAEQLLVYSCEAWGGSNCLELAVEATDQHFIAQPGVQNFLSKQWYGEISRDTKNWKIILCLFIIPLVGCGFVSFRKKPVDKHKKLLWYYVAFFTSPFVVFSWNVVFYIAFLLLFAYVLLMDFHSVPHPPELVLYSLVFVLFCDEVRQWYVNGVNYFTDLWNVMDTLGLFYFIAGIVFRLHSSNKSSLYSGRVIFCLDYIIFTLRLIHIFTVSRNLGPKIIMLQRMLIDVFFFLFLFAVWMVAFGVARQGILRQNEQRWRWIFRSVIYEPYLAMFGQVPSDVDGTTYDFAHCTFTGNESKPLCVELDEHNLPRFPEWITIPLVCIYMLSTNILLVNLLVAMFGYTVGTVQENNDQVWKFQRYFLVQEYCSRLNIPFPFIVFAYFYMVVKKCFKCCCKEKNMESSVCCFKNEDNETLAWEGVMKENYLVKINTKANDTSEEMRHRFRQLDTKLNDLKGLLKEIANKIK

| SMILES | EC50 [nM] |
| --- | --- |
| CC1(C)CC(=O)C2=C(C1)N1CCc3ccccc3C1CC21[S+]([O-])CCS1(=O)=O (stereo not drawn) [Compound 1-8] | 9800 |
| C[C@H]1OC(=O)C2=C1N1CCc3ccccc3C1CC21[S+]([O-])CCS1(=O)=O (stereo partly drawn) [Compound 1-7] | 700 |
| O=C1CCCC2=C1C1(CC3c4ccccc4CCN23)SCCS1 (stereo not drawn) [Compound 1-1, 2,3,4,5,6,10b,11,12-octahydro-spiro[4b-azachrysene-12,2′-[1,3]dithioland-]-1-one] | 100 |
| C[C@H]1OC(=O)C2=C1N1CCc3ccccc3C1CC21SCCCS1 (stereo partly drawn) [Compound 1-6] | 200 |
| O=C1CCCC2=C1C1(CC3c4ccccc4CCN23)SCCCS1 (stereo not drawn) [Compound 1-4, 2,3,4,5,6,10b,11,12-octahydro-spiro[4b-azachrysene-12,2′-[1,3]dithian]-1-one] | 3100 |
| C[C@H]1OC(=O)C2=C1N1CCc3ccccc3C1CC2=O (stereo partly drawn) [Compound 1-9] | 10000 |
| CC1(C)CC(=O)C2=C(C1)N1CCc3ccccc3C1CC21SCCCS1 (stereo not drawn) [Compound 1-5, 2,3,4,5,6,10b,11,12-octahydro-3,3-dimethyl-spiro[4b-azachrysene-12,2′-[1,3]dithian]-1-one] | 1400 |
| CC1(C)CC(=O)C2=C(C1)N1CCc3ccccc3C1CC21SCCS1 (stereo not drawn) [Compound 1-2, 2,3,4,5,6,10b,11,12-octahydro-3,3-dimethyl-spiro[4b-azachrysene-12,2′-[1,3]dithiolan]-1-one] | 600 |

same assay, conditions: Table B, structure type 2; assay according to reference example 3

| SMILES | EC50 [nM] |
| --- | --- |
| COc1cnc(-c2ccccn2)nc1NC(C)C [Compound 2-1, Isopropyl-(5-methoxy-2-pyridin-2-yl-pyrimidin-4-yl)-amine] | 100 |
| COc1cnc(-c2ccccn2)nc1N1CCOCC1 [Compound 2-4] | 1000 |
| COc1cnc(-c2ccccn2)nc1NC(C)C [Compound 2-19, Isopropyl-(5-methoxy-2-pyridin-2-yl-pyrimidin-4-yl)-ammonium succinate] | 300 |
| COc1cnc(-c2ccccn2)nc1NC(C)C [Compound 2-22] | 700 |
| COc1cnc(-c2ccccc2)nc1N1CCOCC1 [Compound 2-13] | 11700 |
| COc1cnc(-c2ccccn2)nc1NC(C)C [Compound 2-15, Isopropyl-(5-methoxy-2-pyridin-2-yl-pyrimidin-4-yl)-ammonium citrate] | 800 |
| COc1cnc(-c2ccccn2)nc1NC(C)CCO (stereo not drawn) [Compound 2-9] | 1000 |
| CC[C@@H](C)Nc1nc(-c2ccccn2)ncc1OC (stereo in doubt) [Compound 2-5, Sec-butyl-(5-methoxy-2-pyridin-2-yl-pyrimidin-4-yl)-amine] | 100 |
| COc1cnc(-c2ccccn2)nc1NC(C)C [Compound 2-17, Isopropyl-(5-methoxy-2-pyridin-2-yl-pyrimidin-4-yl)-ammonium malate] | 400 |
| COc1cnc(-c2ccccn2)nc1NCC1CC1 [Compound 2-11] | 1200 |
| COc1cnc(-c2ccccn2)nc1NC1CCC1 [Compound 2-3, Cyclobutyl-(5-methoxy-2-pyridin-2-yl-pyrimidin-4-yl)-amine] | 800 |
| CCc1cnc(-c2ccccn2)nc1NC(C)C [Compound 2-14, (5-ethyl-2-pyridin-2-yl-pyrimidin-4-yl)-isopropyl-amine] | 400 |
| COc1cnc(-c2ccccn2)nc1NC(C)C [Compound 2-18, Isopropyl-(5-methoxy-2-pyridin-2-yl-pyrimidin-4-yl)-ammonium tartrate] | 500 |
| COc1cnc(-c2ccccn2)nc1NC(C)C [Compound 2-20] | 900 |

same assay, conditions: Table C, structure type 3; assay according to reference example 3

| SMILES | EC50 [nM] |
| --- | --- |
| Cc1ccc(/C=C/C(=O)N(c2ccccc2)c2ccccc2)cc1 [Compound 3-34, 4-methylcinammic acid-N,N-diphenylamide] | 4000 |
| O=C(/C=C/c1ccc2c(c1)OCO2)N(c1ccccc1)C1CCCCC1 [Compound 3-3] | 900 |
| COc1ccc(/C=C/C(=O)N(c2ccccc2)c2ccccc2)cc1 [Compound 3-20, 4-methoxycinammic acid-N,N-diphenylamide] | 1100 |
| Cc1ccccc1/C=C/C(=O)N(c1ccccn1)C1CCCCC1 [Compound 3-30] | 400 |
| CC(C1CC1)N(C(=O)/C=C/c1ccccc1)c1ccccc1 (stereo not drawn) [Compound 3-29] | 800 |
| CCN(C(=O)/C=C/c1ccc2c(c1)OCO2)C1CCCCC1 [Compound 3-4] | 800 |
| COc1cccc(/C=C/C(=O)N(c2ccccn2)C2CCCCC2)c1 [Compound 3-37] | 3000 |
| CCN(CC)C(=O)/C=C/c1ccc2c(c1)OCO2 [Compound 3-15] | 12300 |
| O=C(c1c(Cl)cccc1Cl)N(Cc1ccccc1)c1ccccn1 [Compound 3-49] | 5500 |
| O=C(/C=C/c1ccc2c(c1)OCO2)N(c1ccccn1)C1CCCCC1 [Compound 3-1, (E)-3-benzo[1,3]dioxol-5-yl-N-cyclohexyl-N-pyridin-2-yl-acrylamide] | 100 |
| CCN(Cc1ccccc1)C(=O)/C=C/c1ccc2c(c1)OCO2 [Compound 3-14] | 1500 |
| Cc1cccc(/C=C/C(=O)N(c2ccccn2)C2CCCCC2)c1 [Compound 3-31, (E)-N-cyclohexyl-N-pyridin-2-yl-3-m-tolyl-acrylamide] | 300 |
| COc1ccc(OCC(=O)N(c2ccccn2)C2CCCCC2)cc1 [Compound 3-45] | 4000 |
| COc1cccc(/C=C/C(=O)N(c2ccccn2)C2CCCCC2)c1OC [Compound 3-38] | 700 |
| COc1ccc(/C=C/C(=O)N(c2ccccc2)C(C)C)cc1 [Compound 3-22] | 1300 |
| O=C(/C=C/c1ccccc1)N(c1ccccc1)c1ccccc1 [Compound 3-27, Cinammic acid-N,N-diphenylamide] | 2900 |
| COc1ccc(/C=C/C(=O)N(c2ccccn2)C2CCCCC2)cc1 [Compound 3-17, 4-methoxycinammic acid-N-cyclohexyl-N-2-pyridylamide] | 400 |
| O=C(/C=C/c1ccc2c(c1)OCO2)N(Cc1ccccc1)c1ccccn1 [Compound 3-12] | 700 |
| O=C(COc1ccc2c(c1)OCO2)N(c1ccccc1)C1CCCCC1 [Compound 3-44] | 1000 |
| COc1ccc(/C=C/C(=O)N(c2ccccc2)C2CCCCC2)cc1 [Compound 3-19] | 700 |
| O=C(CCc1ccc2c(c1)OCO2)N(c1ccccc1)c1ccccc1 [Compound 3-43] | 6800 |
| CC(C)CN(C(=O)/C=C/c1ccc2c(c1)OCO2)c1ccc(Cl)cc1 [Compound 3-16] | 8200 |

| SMILES | EC50 [nM] |
| --- | --- |
| Cc1ccc(/C=C/C(=O)N(c2ccccc2)C(C)C)cc1 [Compound 3-36] | 1800 |
| COc1ccc(CCC(=O)N(c2ccccn2)C2CCCCC2)cc1 [Compound 3-42] | 3300 |
| COc1ccc(C(=O)N(c2ccccn2)C2CCCCC2)cc1 [Compound 3-48] | 10900 |
| COc1cccc(/C=C/C(=O)N(c2ccccc2)c2ccccc2)c1OC [Compound 3-40] | 5900 |
| O=C(/C=C/c1ccccc1)N(c1ccccc1)C1CCCCC1 [Compound 3-26, (E)-N-cyclohexyl-3,N-diphenyl-acrylamide] | 600 |
| COc1ccc(/C=C/C(=O)N(Cc2ccccc2)c2ccccn2)cc1 [Compound 3-24] | 2200 |
| O=C(/C=C/c1ccc2c(c1)OCO2)N(Cc1ccccc1)c1ccccc1 [Compound 3-10] | 1200 |
| CC(C)N(C(=O)/C=C/c1ccc2c(c1)OCO2)C1CCCCC1 [Compound 3-5, (E)-3-benzo[1,3]dioxol-5-yl-N-cyclohexyl-N-isopropyl-acrylamide] | 200 |
| CC(C)N(C(=O)/C=C/c1ccc2c(c1)OCO2)c1ccccc1 [Compound 3-8] | 600 |
| CC(C)N(Cc1ccccc1)C(=O)/C=C/c1ccc2c(c1)OCO2 [Compound 3-13] | 3900 |
| COc1ccc(/C=C/C(=O)N(Cc2ccccc2)c2ccccc2)cc1 [Compound 3-23] | 3200 |
| O=C(/C=C/c1ccccc1)N(Cc1ccccc1)c1ccccc1 [Compound 3-28] | 2400 |
| CCN(C(=O)/C=C/c1ccc2c(c1)OCO2)c1ccccn1 [Compound 3-11] | 6200 |
| O=C(/C=C/c1ccc2c(c1)OCO2)N(C1CCCCC1)C1CCCCC1 [Compound 3-2] | 11800 |
| O=C(COc1ccccc1)N(c1nccs1)C1CCCCC1 [Compound 3-46] | 3000 |
| Cc1ccccc1N(Cc1ccccc1)C(=O)Cc1ccccc1 [Compound 3-47] | 1700 |
| O=C(/C=C/c1ccccc1)N(c1ccccn1)C1CCCCC1 [Compound 3-25, Cinammic acid-N-cyclohexyl-N-2-pyridylamide] | 2300 |
| COc1ccc(/C=C/C(=O)N(C2CCCCC2)C2CCCCC2)cc1 [Compound 3-18, (E)-N,N-dicyclohexyl-3-(4-methoxy-phenyl)-acrylamide] | 100 |
| COc1cccc(/C=C/C(=O)N(c2ccccc2)C2CCCCC2)c1OC [Compound 3-39] | 2600 |
| Cc1ccc(/C=C/C(=O)N(c2ccccn2)C2CCCCC2)cc1 [Compound 3-32, (E)-N-cyclohexyl-N-pyridin-2-yl-3-p-tolyl-acrylamide] | 300 |
| O=C(/C=C/c1ccc2c(c1)OCO2)N(c1ccccc1)c1ccccc1 [Compound 3-6, (E)-3-benzo[1,3]dioxol-5-yl-N,N-diphenyl-acrylamide] | 800 |
| CCCN(C(=O)/C=C/c1ccc(OC)cc1)c1ccccc1 [Compound 3-21] | 1700 |
